# Assay results as given in PMC4595979 (Horticulture Research, 2015).
# What was measured:
# [1] = molecular target: T1, LOX2:Md:2b (MdLOX2b) (Malus domestica, UniProt S4ULD7); test: HPLC product analysis; type: biochemical; details: 50 mM sodium phosphate pH 7.5, 25 °C, 0.3 mM substrate
# T1 sequence (S4ULD7 1-905): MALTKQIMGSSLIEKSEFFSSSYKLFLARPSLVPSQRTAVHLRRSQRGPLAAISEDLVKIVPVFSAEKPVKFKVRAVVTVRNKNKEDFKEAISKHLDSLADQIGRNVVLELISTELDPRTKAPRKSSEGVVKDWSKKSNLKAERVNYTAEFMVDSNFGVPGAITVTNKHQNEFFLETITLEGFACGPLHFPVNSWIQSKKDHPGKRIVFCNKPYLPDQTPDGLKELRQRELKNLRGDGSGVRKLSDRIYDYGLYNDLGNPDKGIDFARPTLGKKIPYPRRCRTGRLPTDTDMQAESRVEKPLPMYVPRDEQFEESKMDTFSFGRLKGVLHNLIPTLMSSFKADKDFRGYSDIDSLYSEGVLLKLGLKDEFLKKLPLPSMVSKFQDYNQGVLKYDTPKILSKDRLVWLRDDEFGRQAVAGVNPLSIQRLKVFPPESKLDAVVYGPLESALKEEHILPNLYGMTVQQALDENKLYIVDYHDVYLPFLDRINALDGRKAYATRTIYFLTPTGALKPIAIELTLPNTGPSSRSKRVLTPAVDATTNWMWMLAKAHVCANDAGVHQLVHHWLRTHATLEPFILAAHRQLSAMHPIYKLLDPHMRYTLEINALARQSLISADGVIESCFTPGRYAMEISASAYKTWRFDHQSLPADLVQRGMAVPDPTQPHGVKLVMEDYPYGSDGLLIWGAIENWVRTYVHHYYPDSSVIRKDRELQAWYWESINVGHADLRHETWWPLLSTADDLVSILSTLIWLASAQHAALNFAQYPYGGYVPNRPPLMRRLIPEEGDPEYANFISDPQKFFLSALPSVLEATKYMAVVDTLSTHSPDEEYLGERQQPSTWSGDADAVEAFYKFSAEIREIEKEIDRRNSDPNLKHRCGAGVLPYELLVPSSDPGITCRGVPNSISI
# [2] = molecular target: T2, LOX2:Md:2a (MdLOX2a) (Malus domestica, UniProt S4U6N9); test: HPLC product analysis; type: biochemical; details: 50 mM sodium phosphate pH 7.5, 25 °C, 0.3 mM substrate
# T2 sequence (S4U6N9 1-906): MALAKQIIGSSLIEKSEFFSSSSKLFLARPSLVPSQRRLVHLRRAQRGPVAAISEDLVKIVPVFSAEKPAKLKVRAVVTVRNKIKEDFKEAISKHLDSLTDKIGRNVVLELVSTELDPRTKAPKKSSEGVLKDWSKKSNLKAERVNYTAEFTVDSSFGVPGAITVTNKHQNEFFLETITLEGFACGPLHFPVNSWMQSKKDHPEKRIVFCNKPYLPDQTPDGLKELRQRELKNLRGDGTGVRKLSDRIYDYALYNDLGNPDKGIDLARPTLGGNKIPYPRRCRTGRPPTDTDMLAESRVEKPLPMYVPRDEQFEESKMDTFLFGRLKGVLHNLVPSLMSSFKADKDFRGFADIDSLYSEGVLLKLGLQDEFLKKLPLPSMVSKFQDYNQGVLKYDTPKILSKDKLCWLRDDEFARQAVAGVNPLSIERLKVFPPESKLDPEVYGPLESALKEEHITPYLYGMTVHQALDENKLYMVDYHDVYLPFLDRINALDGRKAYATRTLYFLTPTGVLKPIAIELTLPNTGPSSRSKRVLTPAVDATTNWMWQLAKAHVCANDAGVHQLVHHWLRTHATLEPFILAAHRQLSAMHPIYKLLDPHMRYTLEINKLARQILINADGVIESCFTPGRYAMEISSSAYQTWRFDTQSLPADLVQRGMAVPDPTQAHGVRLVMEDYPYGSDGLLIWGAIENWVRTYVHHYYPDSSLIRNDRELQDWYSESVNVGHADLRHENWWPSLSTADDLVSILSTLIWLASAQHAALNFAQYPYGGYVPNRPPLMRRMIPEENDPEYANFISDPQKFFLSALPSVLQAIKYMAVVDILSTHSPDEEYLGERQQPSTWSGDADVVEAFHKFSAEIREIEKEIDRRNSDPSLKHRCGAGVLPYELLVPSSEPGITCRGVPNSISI
SMILES,"HPLC product analysis (SP-HPLC, CP-HPLC) [1]","HPLC product analysis (SP-HPLC, CP-HPLC) [2]"
CCCCC/C=C\C/C=C\CCCCCCCC(=O)O [linoleic acid],LOX2:Md:2a and LOX2:Md:2b converted LA and LnA predominantly to 13-hydroperoxides,LOX2:Md:2a and LOX2:Md:2b converted LA and LnA predominantly to 13-hydroperoxides
CC/C=C\C/C=C\C/C=C\CCCCCCCC(=O)O [α-linolenic acid],LOX2:Md:2a and LOX2:Md:2b converted LA and LnA predominantly to 13-hydroperoxides,LOX2:Md:2a and LOX2:Md:2b converted LA and LnA predominantly to 13-hydroperoxides
